Results from US20240041042A1, “1-(PYRIDYL)-5-AZINYLPYRAZOLE DERIVATIVES, AND THEIR USE FOR CONTROL OF UNDESIRED PLANT GROWTH” (Bayer Aktiengesellschaft, priority 2020, published 2024).
Like-named read-outs stand apart in the source and are kept apart here.

What was measured:
Assay type in all cases: in vivo
[1] = system: Amaranthus retroflexus (AMARE); assay: Post-emergence herbicidal action against AMARE
Method in brief: (§1)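 Post-emergence greenhouse spray, one-leaf stage, 600 l/ha water plus 0.5% additive; WP or EC formulations; application rates 320 g/ha or lower. Visual % damage vs untreated controls at ~3 weeks.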

Lolium rigidum (LOLRI) = assay: Post-emergence herbicidal action against LOLRI
Method in brief: as §1

[2] = system: Polygonum convolvulus (POLCO); assay: Post-emergence herbicidal action against POLCO
Method in brief: as §1

Viola tricolor (VIOTR) = assay: Post-emergence herbicidal action against VIOTR
Method in brief: as §1

[3] = system: Digitaria sanguinalis (DIGSA); assay: Post-emergence herbicidal action against DIGSA; details: visual rating about 3 weeks after treatment
Method in brief: as §1

[4] = system: Triticum aestivum (TRZAS); details: crop plant compatibility, 20 g/ha, effect vs untreated controls
Method in brief: (§2)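 Percent effect on the crop was judged by eye against untreated controls, where 0% means like control and 100% means dead plants. Plants had been sprayed post-emergence at the one-leaf stage and then kept under optimum greenhouse conditions for about 3 weeks.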

Oryza sativa (ORYSA) = details: crop plant compatibility, 20 g/ha, effect vs untreated controls
Method in brief: as §2

Setaria viridis (SETVI) = assay: Post-emergence herbicidal action against SETVI
Method in brief: as §1

[5] = system: Matricaria inodora (MATIN); assay: Post-emergence herbicidal action against MATIN
Method in brief: as §1

[6] = system: Alopecurus myosuroides (ALOMY); assay: Post-emergence herbicidal action against ALOMY; details: visual rating about 3 weeks after treatment vs untreated controls (100% = plants have died, 0% = like control plants)
Method in brief: as §1

[7] = system: Abutilon theophrasti (ABUTH); assay: Post-emergence herbicidal action against ABUTH; details: visual rating about 3 weeks after treatment vs untreated controls (100% = plants have died, 0% = like control plants)
Method in brief: as §1

Avena fatua (AVEFA) = assay: Post-emergence herbicidal action against AVEFA; details: 320 g/ha, visual rating about 3 weeks after treatment
Method in brief: as §1

[8] = system: Echinochloa crus-galli (ECHCG); assay: Post-emergence herbicidal action against ECHCG
Method in brief: as §1

[9] = system: Pharbitis purpurea (PHBPU); assay: Post-emergence herbicidal action against PHBPU
Method in brief: as §1

[10] = system: Verconica persica (VERPE); assay: Post-emergence herbicidal action against VERPE
Method in brief: as §1

Zea mays (ZEAMX) = details: for Post-emergence action against ZEAMX in %: crop plant compatibility, effect vs untreated controls
Method in brief: as §2

[11] = 80 g/ha, visual rating about 3 weeks after treatment vs untreated controls (100% = plants have died, 0% = like control plants)
[12] = 320 g/ha, visual rating about 3 weeks after treatment

Compound | Post-emergence action against AMARE in % [1, 11] | Post-emergence action against AMARE in % [1, 12] | Post-emergence action against LOLRI in % (Lolium rigidum (LOLRI); dosage 320 g/ha) | Post-emergence action against POLCO in % ([2]; dosage 80 g/ha) | Post-emergence action against POLCO in % ([2]; dosage 320 g/ha) | Post-emergence action against VIOTR in % (Viola tricolor (VIOTR); 80 g/ha) | Post-emergence action against VIOTR in % (Viola tricolor (VIOTR); 320 g/ha) | Post-emergence action against DIGSA in % ([3]; 320 g/ha) | Post-emergence action against TRZAS in % [4] | Post-emergence action against ORYSA in % (Oryza sativa (ORYSA)) | Post-emergence action against SETVI in % (Setaria viridis (SETVI); dosage 80 g/ha) | Post-emergence action against MATIN in % ([5]; dosage 320 g/ha) | Post-emergence action against ALOMY in % ([6]; 320 g/ha) | Post-emergence action against ABUTH in % ([7]; 80 g/ha) | Post-emergence action against ABUTH in % ([7]; 320 g/ha) | Post-emergence action against AVEFA in % (Avena fatua (AVEFA)) | Post-emergence action against ECHCG in % ([8]; dosage 320 g/ha) | Post-emergence action against PHBPU in % ([9]; dosage 320 g/ha) | Post-emergence action against VERPE in % ([10]; 320 g/ha, VERPE) | Post-emergence action against VERPE in % ([10]; dosage 80 g/ha) | further results
CCOC(=O)[C@@H](C)Oc1nn(-c2ncccc2F)c(-c2cncc(F)c2)c1Cl [Example I-145] | 80% | 80% | 90% | 90% | 90% | 90% | 90% | 90% | 20% | 0% | 90% | 90% | 90% | 90% | 90% | 90% | 90% | 90% | 90% | 90% | Post-emergence action against LOLRI in % (Lolium rigidum (LOLRI); dosage 80 g/ha): 90%; Post-emergence action against SETVI in % (Setaria viridis (SETVI); dosage 320 g/ha): 90%; Post-emergence action against MATIN in % ([5]; dosage 80 g/ha): 80%; Post-emergence action against ALOMY in % ([6]; 80 g/ha): 80%; Post-emergence action against ECHCG in % ([8]; dosage 80 g/ha): 90%; Post-emergence action against PHBPU in % ([9]; dosage 80 g/ha): 90%
COC(=O)COc1nn(-c2ncccc2F)c(-c2ccnc(F)c2)c1Br [Example I-130] | 80% | 90% | 90% | – | 80% | 90% | 90% | 90% | 20% | 0% | – | 80% | 90% | 80% | 90% | 90% | 90% | 80% | 80% | 80% | Post-emergence action against DIGSA in % ([3]; 80 g/ha): 80%; Post-emergence action against ZEAMX in % (crop plant compatibility) (Zea mays (ZEAMX); 20 g/ha, ZEAMX, effect in comparison to untreated controls): 0%; Post-emergence action against ZEAMX in % (Zea mays (ZEAMX); 80 g/ha): 0%; Post-emergence action against ZEAMX in % (Zea mays (ZEAMX); 320 g/ha): 20%
C[C@@H](Oc1nn(-c2ncccc2F)c(-c2cncc(F)c2)c1Cl)C(=O)O [Example I-165] | – | 80% | 100% | 80% | 90% | 90% | 90% | 90% | 20% | 0% | 90% | 90% | 100% | 90% | 90% | 90% | 90% | 90% | 90% | 90% | Post-emergence action against DIGSA in % ([3]; 80 g/ha): 90%; Post-emergence action against SETVI in % (Setaria viridis (SETVI); dosage 320 g/ha): 90%; Post-emergence action against MATIN in % ([5]; dosage 80 g/ha): 80%; Post-emergence action against ECHCG in % ([8]; dosage 80 g/ha): 90%; Post-emergence action against PHBPU in % ([9]; dosage 80 g/ha): 80%
